In ChEMBL document CHEMBL1201862, “PubChem BioAssay data set” (2004):
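1) Cells in 96-well plates. 2) Compound, 48 h, 5 concentrations. 3) Linear interpolation between surrounding doses. 4) Unreached endpoint = highest concentration. At the GI50, growth is halved.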 Calls of active or inactive are those of the source. No stated cut-off is given here; in the data, active = GI50 up to about 1.1 µM and inactive = higher.

Tests used:
Assay in all cases: inhibition of tumour cell growth, NCI panel, 48 h
SF-295 = system: SF-295
DU-145 = system: DU-145
U-251 = system: U-251
A549 = system: A549
TK-10 = system: TK-10
HOP-62 = system: HOP-62
BT-549 = system: BT-549
KM12 = system: KM12
K562 = system: K562
HCT-15 = system: HCT-15
A498 = system: A498
MDA-MB-435 = system: MDA-MB-435
NCI/ADR-RES = system: NCI/ADR-RES
SNB-75 = system: SNB-75
MCF7 = system: MCF7
SF-539 = system: SF-539
NCI-H460 = system: NCI-H460
MDA-MB-231 = system: MDA-MB-231
UO-31 = system: UO-31
CCRF-CEM = system: CCRF-CEM
SN12C = system: SN12C
SK-MEL-5 = system: SK-MEL-5
SNB-19 = system: SNB-19
OVCAR-3 = system: OVCAR-3
RXF 393 = system: RXF 393
SR = system: SR
786-0 = system: 786-0
COLO 205 = system: COLO 205
OVCAR-5 = system: OVCAR-5
T47D = system: T47D
NCI-H23 = system: NCI-H23
UACC-62 = system: UACC-62
ACHN = system: ACHN
HCC 2998 = system: HCC 2998
PC-3 = system: PC-3
Hs-578T = system: Hs-578T
SK-MEL-28 = system: SK-MEL-28
HCT-116 = system: HCT-116
NCI-H522 = system: NCI-H522
OVCAR-4 = system: OVCAR-4
M14 = system: M14
SK-MEL-2 = system: SK-MEL-2
Malme-3M = system: Malme-3M
SK-OV-3 = system: SK-OV-3
SW-620 = system: SW-620
LOX IMVI = system: LOX IMVI
UACC-257 = system: UACC-257
NCI-H226 = system: NCI-H226
HT-29 = system: HT-29
IGROV-1 = system: IGROV-1
HOP-92 = system: HOP-92
EKVX = system: EKVX
OVCAR-8 = system: OVCAR-8
SF-268 = system: SF-268
CAKI-1 = system: CAKI-1
RPMI-8226 = system: RPMI-8226
MDA-N = system: MDA-N
HL-60 = system: HL-60
MOLT-4 = system: MOLT-4

Measured: GI50

COc1cc2nc(Cl)nc(NS(=O)(=O)c3cc4ccccc4s3)c2cc1OC
active: SK-MEL-28 0.0335 µM
inactive: SF-295 33.8 µM | DU-145 21.3 µM | U-251 27.3 µM | A549 32 µM | TK-10 28.3 µM | HOP-62 31.5 µM | BT-549 22.9 µM | KM12 23.3 µM | K562 18.2 µM | A498 16.4 µM | MDA-MB-435 22.4 µM | NCI/ADR-RES 39.8 µM | SNB-75 23.1 µM | MCF7 31.6 µM | SF-539 37.2 µM | NCI-H460 32.5 µM | MDA-MB-231 24.9 µM | UO-31 16.4 µM | CCRF-CEM 12.1 µM | SN12C 29.6 µM | SK-MEL-5 19.1 µM | SNB-19 21 µM | OVCAR-3 19 µM | RXF 393 16.6 µM | SR 23.4 µM | 786-0 35.4 µM | COLO 205 38.1 µM | OVCAR-5 19.6 µM | T47D 19.7 µM | NCI-H23 25.7 µM | UACC-62 16.9 µM | ACHN 30.8 µM | HCC 2998 19 µM | PC-3 26.1 µM | Hs-578T 40.6 µM | HCT-116 30.2 µM | NCI-H522 31.3 µM | OVCAR-4 27.4 µM | M14 26.2 µM | SK-MEL-2 24.5 µM | Malme-3M 32 µM | SK-OV-3 28.1 µM | SW-620 17.1 µM | LOX IMVI 23.3 µM | UACC-257 32.4 µM | NCI-H226 36.8 µM | HT-29 27.5 µM | IGROV-1 27 µM | HOP-92 18 µM | EKVX 25 µM | OVCAR-8 33 µM | SF-268 35.3 µM | CAKI-1 33.3 µM | RPMI-8226 18.4 µM
36.3 µM: HCT-15

Nc1nc(O)c2[nH]cnc2[n+]1[O-]
inactive: SF-295 > 100 µM | DU-145 > 100 µM | U-251 > 100 µM | A549 > 100 µM | TK-10 53.3 µM | HOP-62 > 100 µM | BT-549 > 100 µM | KM12 > 100 µM | K562 > 100 µM | A498 > 100 µM | NCI/ADR-RES > 100 µM | MDA-N > 100 µM | SNB-75 > 100 µM | MCF7 37.1 µM | SF-539 > 100 µM | NCI-H460 > 100 µM | MDA-MB-231 > 100 µM | UO-31 > 100 µM | CCRF-CEM > 100 µM | SN12C 40.5 µM | SK-MEL-5 > 100 µM | SNB-19 > 100 µM | OVCAR-3 > 100 µM | RXF 393 > 100 µM | HL-60 > 100 µM | SR 75.3 µM | 786-0 > 100 µM | COLO 205 > 100 µM | OVCAR-5 > 100 µM | T47D > 100 µM | NCI-H23 > 100 µM | UACC-62 > 100 µM | ACHN > 100 µM | PC-3 > 100 µM | MOLT-4 > 100 µM | Hs-578T > 100 µM | SK-MEL-28 > 100 µM | HCT-116 > 100 µM | NCI-H522 > 100 µM | OVCAR-4 > 100 µM | M14 > 100 µM | SK-MEL-2 > 100 µM | Malme-3M > 100 µM | SK-OV-3 > 100 µM | SW-620 > 100 µM | LOX IMVI > 100 µM | UACC-257 > 100 µM | NCI-H226 > 100 µM | HT-29 > 100 µM | IGROV-1 > 100 µM | HOP-92 > 100 µM | EKVX > 100 µM | OVCAR-8 > 100 µM | SF-268 > 100 µM | RPMI-8226 > 100 µM
> 100 µM: HCT-15
